Measurements reported in patent publication US8192962B2, “Processes for detecting toxic substances” (Daikin Industries, Ltd., priority 2001, dated 2012).

Test system: Stress protein genes
Experiment: DNA chip mRNA expression in yeast, stress protein genes (Table 6)
Type: cell-based, Saccharomyces cerevisiae S288C
Summary of the method: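 Value is the scanned fluorescence intensity ratio of exposed versus chemical-free cells. Log-phase S288C yeast in YPD at 25° C. received one toxic substance for two hours, dosed to slow growth without killing; Cy3/Cy5-labeled cDNA from oligo-dT-purified mRNA was hybridized to a whole-genome chip at 65° C.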

Structure (SMILES): CCCCC[C@H](O)CC(=O)CCc1ccc(O)c(OC)c1 [(13), gingerol]
- The level of expressed mRNA in the presence of chemical substance/The level of expressed mRNA in the absence of chemical substance (yeast gene YAL015C): 1.2
- The level of expressed mRNA in the presence of chemical substance/The level of expressed mRNA in the absence of chemical substance (yeast gene YBL093C): 2.1
- The level of expressed mRNA in the presence of chemical substance/The level of expressed mRNA in the absence of chemical substance (yeast gene YBR044C): 1.2
- The level of expressed mRNA in the presence of chemical substance/The level of expressed mRNA in the absence of chemical substance (yeast gene YBR054W): 1.5
- The level of expressed mRNA in the presence of chemical substance/The level of expressed mRNA in the absence of chemical substance (yeast gene YBR067C): 0.9
- The level of expressed mRNA in the presence of chemical substance/The level of expressed mRNA in the absence of chemical substance (yeast gene YBR126C): 2.1
- The level of expressed mRNA in the presence of chemical substance/The level of expressed mRNA in the absence of chemical substance (yeast gene YCL035C): 2.8
- The level of expressed mRNA in the presence of chemical substance/The level of expressed mRNA in the absence of chemical substance (yeast gene YCR021C): 0.9
- The level of expressed mRNA in the presence of chemical substance/The level of expressed mRNA in the absence of chemical substance (yeast gene YCR083W): 1.8
- The level of expressed mRNA in the presence of chemical substance/The level of expressed mRNA in the absence of chemical substance (yeast gene YDL022W): 1.5
- The level of expressed mRNA in the presence of chemical substance/The level of expressed mRNA in the absence of chemical substance (yeast gene YDL025C): 1.2
- The level of expressed mRNA in the presence of chemical substance/The level of expressed mRNA in the absence of chemical substance (yeast gene YDR033W): 0.7
- The level of expressed mRNA in the presence of chemical substance/The level of expressed mRNA in the absence of chemical substance (yeast gene YDR077W): 1.0
- The level of expressed mRNA in the presence of chemical substance/The level of expressed mRNA in the absence of chemical substance (yeast gene YDR098C): 1.2
- The level of expressed mRNA in the presence of chemical substance/The level of expressed mRNA in the absence of chemical substance (yeast gene YDR155C): 3.3
- The level of expressed mRNA in the presence of chemical substance/The level of expressed mRNA in the absence of chemical substance (yeast gene YDR293C): 2.3
- The level of expressed mRNA in the presence of chemical substance/The level of expressed mRNA in the absence of chemical substance (yeast gene YDR513W): 1.8
- The level of expressed mRNA in the presence of chemical substance/The level of expressed mRNA in the absence of chemical substance (yeast gene YDR519W): 2.5
- The level of expressed mRNA in the presence of chemical substance/The level of expressed mRNA in the absence of chemical substance (yeast gene YEL039C): 0.5
- The level of expressed mRNA in the presence of chemical substance/The level of expressed mRNA in the absence of chemical substance (yeast gene YER042W): 1.4
- The level of expressed mRNA in the presence of chemical substance/The level of expressed mRNA in the absence of chemical substance (yeast gene YER057C): 1.0
- The level of expressed mRNA in the presence of chemical substance/The level of expressed mRNA in the absence of chemical substance (yeast gene YER125W): 1.9
- The level of expressed mRNA in the presence of chemical substance/The level of expressed mRNA in the absence of chemical substance (yeast gene YFL014W): 15.2
- The level of expressed mRNA in the presence of chemical substance/The level of expressed mRNA in the absence of chemical substance (yeast gene YFL016C): 2.8
- The level of expressed mRNA in the presence of chemical substance/The level of expressed mRNA in the absence of chemical substance (yeast gene YFL020C): 1.4
- The level of expressed mRNA in the presence of chemical substance/The level of expressed mRNA in the absence of chemical substance (yeast gene YFR052W): 3.8
- The level of expressed mRNA in the presence of chemical substance/The level of expressed mRNA in the absence of chemical substance (yeast gene YGL073W): 1.5
- The level of expressed mRNA in the presence of chemical substance/The level of expressed mRNA in the absence of chemical substance (yeast gene YGL115W): 0.7
- The level of expressed mRNA in the presence of chemical substance/The level of expressed mRNA in the absence of chemical substance (yeast gene YGR088W): 1.2
- The level of expressed mRNA in the presence of chemical substance/The level of expressed mRNA in the absence of chemical substance (yeast gene YHL028W): 2.1
- The level of expressed mRNA in the presence of chemical substance/The level of expressed mRNA in the absence of chemical substance (yeast gene YHL046C): 1.4
- The level of expressed mRNA in the presence of chemical substance/The level of expressed mRNA in the absence of chemical substance (yeast gene YHR030C): 1.0
- The level of expressed mRNA in the presence of chemical substance/The level of expressed mRNA in the absence of chemical substance (yeast gene YHR057C): 1.9
- The level of expressed mRNA in the presence of chemical substance/The level of expressed mRNA in the absence of chemical substance (yeast gene YHR104W): 1.2
- The level of expressed mRNA in the presence of chemical substance/The level of expressed mRNA in the absence of chemical substance (yeast gene YIL011W): 0.5
- The level of expressed mRNA in the presence of chemical substance/The level of expressed mRNA in the absence of chemical substance (yeast gene YIL033C): 2.5
- The level of expressed mRNA in the presence of chemical substance/The level of expressed mRNA in the absence of chemical substance (yeast gene YIR037W): 2.4
- The level of expressed mRNA in the presence of chemical substance/The level of expressed mRNA in the absence of chemical substance (yeast gene YIR038C): 2.5
- The level of expressed mRNA in the presence of chemical substance/The level of expressed mRNA in the absence of chemical substance (yeast gene YJL128C): 1.7
- The level of expressed mRNA in the presence of chemical substance/The level of expressed mRNA in the absence of chemical substance (yeast gene YJL159W): 1.7
- The level of expressed mRNA in the presence of chemical substance/The level of expressed mRNA in the absence of chemical substance (yeast gene YJL165C): 1.5
- The level of expressed mRNA in the presence of chemical substance/The level of expressed mRNA in the absence of chemical substance (yeast gene YJR045C): 2.3
- The level of expressed mRNA in the presence of chemical substance/The level of expressed mRNA in the absence of chemical substance (yeast gene YJR090C): 2.2
- The level of expressed mRNA in the presence of chemical substance/The level of expressed mRNA in the absence of chemical substance (yeast gene YKL161C): 1.3
- The level of expressed mRNA in the presence of chemical substance/The level of expressed mRNA in the absence of chemical substance (yeast gene YKL163W): 1.5
- The level of expressed mRNA in the presence of chemical substance/The level of expressed mRNA in the absence of chemical substance (yeast gene YKL164C): 0.9
- The level of expressed mRNA in the presence of chemical substance/The level of expressed mRNA in the absence of chemical substance (yeast gene YKL210W): 2.9
- The level of expressed mRNA in the presence of chemical substance/The level of expressed mRNA in the absence of chemical substance (yeast gene YKR053C): 0.7
- The level of expressed mRNA in the presence of chemical substance/The level of expressed mRNA in the absence of chemical substance (yeast gene YLL039C): 2.2
- The level of expressed mRNA in the presence of chemical substance/The level of expressed mRNA in the absence of chemical substance (yeast gene YLL060C): 1.8
- The level of expressed mRNA in the presence of chemical substance/The level of expressed mRNA in the absence of chemical substance (yeast gene YLR006C): 0.8
- The level of expressed mRNA in the presence of chemical substance/The level of expressed mRNA in the absence of chemical substance (yeast gene YLR109W): 3.2
- The level of expressed mRNA in the presence of chemical substance/The level of expressed mRNA in the absence of chemical substance (yeast gene YLR259C): 2.5
- The level of expressed mRNA in the presence of chemical substance/The level of expressed mRNA in the absence of chemical substance (yeast gene YML007W): 1.7
- The level of expressed mRNA in the presence of chemical substance/The level of expressed mRNA in the absence of chemical substance (yeast gene YMR021C): 1.4
- The level of expressed mRNA in the presence of chemical substance/The level of expressed mRNA in the absence of chemical substance (yeast gene YMR173W): 2.0
- The level of expressed mRNA in the presence of chemical substance/The level of expressed mRNA in the absence of chemical substance (yeast gene YMR186W): 2.4
- The level of expressed mRNA in the presence of chemical substance/The level of expressed mRNA in the absence of chemical substance (yeast gene YNL064C): 1.1
- The level of expressed mRNA in the presence of chemical substance/The level of expressed mRNA in the absence of chemical substance (yeast gene YNR076W): 0.9
- The level of expressed mRNA in the presence of chemical substance/The level of expressed mRNA in the absence of chemical substance (yeast gene YOL064C): 2.0
- The level of expressed mRNA in the presence of chemical substance/The level of expressed mRNA in the absence of chemical substance (yeast gene YOL161C): 1.2
- The level of expressed mRNA in the presence of chemical substance/The level of expressed mRNA in the absence of chemical substance (yeast gene YOR008C): 0.9
- The level of expressed mRNA in the presence of chemical substance/The level of expressed mRNA in the absence of chemical substance (yeast gene YOR010C): 0.5
- The level of expressed mRNA in the presence of chemical substance/The level of expressed mRNA in the absence of chemical substance (yeast gene YOR027W): 5.1
- The level of expressed mRNA in the presence of chemical substance/The level of expressed mRNA in the absence of chemical substance (yeast gene YOR208W): 1.5
- The level of expressed mRNA in the presence of chemical substance/The level of expressed mRNA in the absence of chemical substance (yeast gene YPL059W): 0.7
- The level of expressed mRNA in the presence of chemical substance/The level of expressed mRNA in the absence of chemical substance (yeast gene YPL106C): 3.1
- The level of expressed mRNA in the presence of chemical substance/The level of expressed mRNA in the absence of chemical substance (yeast gene YPL140C): 0.9
- The level of expressed mRNA in the presence of chemical substance/The level of expressed mRNA in the absence of chemical substance (yeast gene YPL194W): 1.4
- The level of expressed mRNA in the presence of chemical substance/The level of expressed mRNA in the absence of chemical substance (yeast gene YPL223C): 2.3
- The level of expressed mRNA in the presence of chemical substance/The level of expressed mRNA in the absence of chemical substance (yeast gene YPL240C): 2.9
- The level of expressed mRNA in the presence of chemical substance/The level of expressed mRNA in the absence of chemical substance (yeast gene YPR005C): 0.7
- The level of expressed mRNA in the presence of chemical substance/The level of expressed mRNA in the absence of chemical substance (yeast gene YPR026W): 2.3
